Assay results published in paper PMC10033409, “Autoregulation of GPCR signalling through the third intracellular loop” (Nature, 2023).
Where a name gives a salt, the structure may show the parent alone.

What was measured:
β2AR = assay: cAMP accumulation (cAMP-Glo), β2AR; format: cell-based, human; conditions: for cAMP response (Average): β2AR L258Azi
PTH1R [1] = molecular target: T1, PTH1R (Homo sapiens, UniProt Q03431); assay: InsP1 accumulation, PTH1R; format: cell-based; conditions: PTH1R Wild-Type
T1 construct: expressed in transfected cells; host or cells: HEK 293T
T1 sequence (Q03431 27-593): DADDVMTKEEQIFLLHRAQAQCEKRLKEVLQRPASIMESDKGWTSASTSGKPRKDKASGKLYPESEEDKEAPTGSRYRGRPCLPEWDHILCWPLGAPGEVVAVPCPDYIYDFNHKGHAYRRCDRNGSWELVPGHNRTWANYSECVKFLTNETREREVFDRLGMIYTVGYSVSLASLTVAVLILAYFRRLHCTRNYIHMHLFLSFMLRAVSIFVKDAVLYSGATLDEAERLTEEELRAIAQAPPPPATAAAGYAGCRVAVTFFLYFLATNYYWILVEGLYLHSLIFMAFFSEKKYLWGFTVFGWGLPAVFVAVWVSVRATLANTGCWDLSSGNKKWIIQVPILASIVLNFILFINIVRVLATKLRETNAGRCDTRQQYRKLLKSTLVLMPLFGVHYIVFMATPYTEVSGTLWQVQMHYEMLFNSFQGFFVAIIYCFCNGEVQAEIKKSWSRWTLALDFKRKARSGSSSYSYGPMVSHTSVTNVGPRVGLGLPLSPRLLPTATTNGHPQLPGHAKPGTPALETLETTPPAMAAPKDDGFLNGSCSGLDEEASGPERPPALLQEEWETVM
Protocol: (§1) One millilitre of medium was removed from each well containing transfected cells. The remaining volume was used to gently shear and resuspend the cells by pipetting. The cell mixture was centrifuged (3 min, 300g) and media was removed using a vacuum manifold. […] The cells were washed once by repeating this procedure.
(§2) For all other second messenger assays, expression level and cell density of each condition was estimated through fluorescence. Fluorescence spectra for mCerulean (Horiba Fluoromax 4, excitation 430 nm, emission scan 450–600 nm, bandpass 4 nm) and mCitrine (Horiba Fluoromax 4, excitation 490 nm, emission scan 500–600 nm, bandpass 4 nm) were acquired for each condition. Cells were resuspended at 350,000 ± 30,000 fluorescence counts at a wavelength representing optical density of the sample (excitation 430 nm/emission 450 nm), corresponding with 2 × 10^6 ± 5 × 10^5 cells per m^l. This was confirmed by counting the cells on a haemocytometer (Countess II).
(§3) Resuspended cells were added 1:1 with a 2× concentration of ligand (70 µl final) into an opaque 96-well U-bottom plate (Greiner Bio-One). […] Plates were incubated at 37 °C for 2 h to stimulate InsP1 production. Reactions were quenched and processed for the InsP1 HTRF Assay (CisBio), following a protocol modified to achieve a higher signal to noise ratio. Fifteen microlitres of D2-conjugated InsP1 resuspended in lysis buffer (Cisbio) and 15 µl of terbium cryptate conjugated anti-InsP1 antibody resuspended in lysis buffer (Cisbio) were added to the stimulated cell mixture. Cell lysate was equilibrated for 1 h at ambient temperature with shaking (500 rpm). Reactions were transferred (4 × 20 µl) to a 384-well plate for technical replicates. […] FRET ratio for each reading was calculated as the ratio of acceptor emission to donor emission. InsP1 signal for a drug and transfection combination was calculated as the average FRET ratio of a given transfection condition without drug treatment subtracted from the average FRET ratio of a of a given transfection condition with drug treatment.

PTH1R [2] = assay: InsP1 accumulation, PTH1R; format: cell-based, human; conditions: PTH1R B2AR ICL3
Protocol: as §1, §2, §3

[3] = [Isoproterenol] log(M) -6.30103
[4] = [Isoproterenol] log(M) -7.30103
[5] = [Isoproterenol] log(M) -8.30103

SMILES: CC(C)NCC(O)c1ccc(O)c(O)c1 (stereo not drawn) [Isoproterenol, isoproterenol (+)-bitartrate salt]
- Emax (Average) (β2AR; β2AR L258 (L258Azi), fit of the isoproterenol concentration-response of Extended Data Figure 3B): 1.23E+05
- cAMP response (Average) (β2AR; Log (Isoproterenol (M)) -4): 1.30E+05
- cAMP response (Average) (β2AR; Log (Isoproterenol (M)) -5): 1.30E+05
- cAMP response (Average) (β2AR; Log (Isoproterenol (M)) -6): 1.28E+05
- cAMP response (Average) (β2AR; Log (Isoproterenol (M)) -7): 1.04E+05
- cAMP response (Average) (β2AR; Log (Isoproterenol (M)) -7.52288): 1.08E+05
- cAMP response (Average) (β2AR; Log (Isoproterenol (M)) -8): 1.10E+05
- cAMP response (Average) (β2AR; Log (Isoproterenol (M)) -8.52288): 6.79E+04
- cAMP response (Average) (β2AR; Log (Isoproterenol (M)) -9): 4.10E+04
- cAMP response (Average) (β2AR; Log (Isoproterenol (M)) -9.52288): 2.28E+04
- cAMP response (Average) (β2AR; Log (Isoproterenol (M)) -10): -8.91E+03
- cAMP response (Average) (β2AR; Log (Isoproterenol (M)) -10.5229): -2.86E+04
- cAMP response (Average) (β2AR; Log (Isoproterenol (M)) -11): -9.58E+03
- cAMP response (Average) (β2AR; Log (Isoproterenol (M)) -12): -4.68E+03
- cAMP response (Average) (β2AR; Log (Isoproterenol (M)) -13): 2.29E+03
- IP1 (AU), Average (PTH1R [1]; [Isoproterenol] log(M) -5): 0.44 AU
- IP1 (AU), Average (PTH1R [1]; [Isoproterenol] log(M) -6): 0.45 AU
- IP1 (AU), Average (PTH1R [1]; [3]): 0.41 AU
- IP1 (AU), Average (PTH1R [1]; [Isoproterenol] log(M) -7): 0.38 AU
- IP1 (AU), Average (PTH1R [1]; [4]): 0.22 AU
- IP1 (AU), Average (PTH1R [1]; [Isoproterenol] log(M) -8): 0.0235 AU
- IP1 (AU), Average (PTH1R [1]; [5]): 0.04 AU
- IP1 (AU), Average (PTH1R [1]; [Isoproterenol] log(M) -9): -0.0234 AU
- IP1 (AU), Average (PTH1R [1]; [Isoproterenol] log(M) -10): -0.0216 AU
- IP1 (AU), Average (PTH1R [1]; [Isoproterenol] log(M) -11): -0.00815 AU
- IP1 (AU), Average (PTH1R [2]; [Isoproterenol] log(M) -5): 0.32 AU
- IP1 (AU), Average (PTH1R [2]; [Isoproterenol] log(M) -6): 0.35 AU
- IP1 (AU), Average (PTH1R [2]; [3]): 0.29 AU
- IP1 (AU), Average (PTH1R [2]; [Isoproterenol] log(M) -7): 0.28 AU
- IP1 (AU), Average (PTH1R [2]; [4]): 0.15 AU
- IP1 (AU), Average (PTH1R [2]; [Isoproterenol] log(M) -8): -0.00248 AU
- IP1 (AU), Average (PTH1R [2]; [5]): -0.00156 AU
- IP1 (AU), Average (PTH1R [2]; [Isoproterenol] log(M) -9.30103): 0.05 AU
- IP1 (AU), Average (PTH1R [2]; [Isoproterenol] log(M) -10): -0.0155 AU
- IP1 (AU), Average (PTH1R [2]; [Isoproterenol] log(M) -11): 0.00619 AU
